In US7335735B2, “Intracellular estradiol binding protein” (Cedars-Sinai Medical Center, priority 2003, dated 2008):
“Also recorded” adds a separate entry of the source. One block for each molecule: values may come before it.

Tests used:
glucocorticoid receptors = settings: New World primate cells; cited from earlier work
[1] = test system: ERE-directed transactivation; assay: ERE-promoter-reporter luciferase assay, transient co-transfection; assay type: cell-based, Old World primate
hsp27 = assay: Western blot analysis of hsp27 expression in wild-type breast cells; assay type: cell-based, Old World primate; settings: wild-type control cells, Western blot with anti-hsp27 antibody
[2] = test system: ERE-directed transactivation; assay: ERE luciferase reporter assay in cells stably transfected with IEBP; assay type: cell-based, Old World primate; settings: stable transfectants compared with wild-type cells
Protocol: E2-responsive OWP breast cells from cell line 6299 were incubated with 5.0 ug pcDNA3.1/v5-His-TOPO IEBP plasmid in LIPOTAXI solution for 5 hours followed by the addition of equal volume of 20% FCS-supplemented medium. After incubation overnight, cells were split (1:10 ratio) and incubated with fresh medium containing 500 ug/ml of the geneticin-selective antibiotic G418 sulfate (Life Technology; Grand Island, N.Y.). This medium was replaced every 3-4 days, until stable colonies formed. Single colonies were picked, transferred into a new dish, and incubated with medium containing selection antibiotic G418 until confluence for further study.
Experiments were therefore carried out to clarify whether the overexpression of IEBP antagonized, facilitated, or did nothing to estrogen-induced transactivation. Estrogen-responsive Old World primate cells were transiently co-transfected with IEBP cDNA and an ERE-promoter-reporter construct. After transfection, ERE-directed luciferase activity was reduced 50% compared to vector alone-transfected Old World primate cells. […] Similar results were also obtained following stable transfection of IEBP into Old World primate cells. Increased expression of IEBP in these cells was confirmed by Western blot analyses using an anti-hsp27 antibody.

ERE = assay: Electrophoretic mobility shift analysis (EMSA) with idealized ERE as probe; assay type: binding; settings: postnuclear extracts from OWP-IEBP stable transfectant clone 1, recombinant ERα
Protocol: This is believed to be due, at least in part, to enhanced binding of estrogens. To determine whether IEBP also functions as a direct competitor for ERE-binding, the inventors carried out electrophoretic mobility shift analyses (EMSAs) using an idealized ERE as a probe with recombinant ERα and/or postnuclear extracts from OWP-IEBP stable transfectant clone 1 as binding proteins. […] To assess this possibility, coimmunoprecipitation was performed by using anti-ERα and anti-hsp27 antibodies. Antihuman ERα antibodies were used to immunoprecipitate […] proteins in postnuculear extracts of both wild-type and IEBP-stably-transfected cells. The immunoprecipitates were subjected to Western blot analysis by using hsp27 antibodies. Data confirmed association between ERα and hsp27. Similar results were also obtained following initial immunoprecipitation with hsp27, and subsequent ERα blotting.

Molecule: FKBP51: heat-shock protein (hsp)90-associated FK 506-binding immunophilin
inhibition of ligand binding to glucocorticoid receptors (glucocorticoid receptors): 74%

effect on ERE-mediated transcription ([1]; transient transfectants, E2 pre-treatment in control cells): stimulated ERE-mediated transcription
Molecule: C[C@]12CC[C@@H]3c4ccc(O)cc4CC[C@H]3[C@@H]1CC[C@@H]2O [E2, 17β-estradiol]
hsp27 expression (hsp27): stimulated hsp27 expression in a dose-dependent fashion; also recorded: strongly increased hsp27 expression

reduction of ERE-directed luciferase activity ([1]; transient co-transfection of cDNA and ERE-promoter-reporter construct, compared to vector alone-transfected Old World primate cells): 50%
B1: IEBP: novel hsp27-related intracellular estradiol binding protein from New World primate B95-8 cells, SEQ ID NO:1 (protein, listed as Homo sapiens)
chain: MTERHVPFSLLQSPSWDPFRDWYPHSHLFDQAFGMPRLPEEWSQWFGTSSWPGYVRPLPPTTVEGPAVAAPAYSRALNQQLSSGVSETADRWRVSLDVNHFAPEELTVKTKDGVVEITGKHEERQDEHGFISRCFTRKYSLPPGVDPTQVSPSLSPEGTLTVDAPMSKPATQSNEITIPVTFESRAQLGGPEAAKSDRSAAK
decrease of ERE luciferase reporter activity [2]: 2-3 fold
binding to ERE and competition with ERα for ERE (ERE): neither bound to ERE nor competed with the ERα for binding to ERE
